This is an account of results in patent US20240002375A1, “2-(INDAZOL-5-YL)-6-(PIPERIDIN-4-YL)-1,7-NAPHTHYRIDINE DERIVATIVES AND RELATED COMPOUNDS AS MODULATORS FOR SPLICING NUCLEIC ACIDS AND FOR THE TRE” (REMIX THERAPEUTICS INC., priority 2020, published 2024).

For orientation: IC50 means the concentration that gives 50% inhibition. What is called AC50 is the midpoint of the concentration-response curve, whichever way the signal moves.

Bounds are passed on as bounds.

Common to all, as to type: cell-based
Experiment [1] relates to SMN2 CJ mRNA. Briefly: Gene panel canonical junction qPCR splicing assay, SMN2. The following applies: Table 4, read-out: SMN2 IC50 (decrease in CJ mRNA levels). In a few lines: (§1)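 A673 or K562 cells treated with compound; canonical-junction mRNA measured by RT-qPCR with junction-spanning primer/probe sets, normalized to GAPDH, GUSB or PPIA and DMSO (2^−ΔΔCt). IC50 for CJ decrease from 4-parameter logistic fit of percentage response.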
In general terms: In qPCR the cycle at which signal appears reflects the starting amount.

In experiment [2] the test system is Target C CJ mRNA. The experiment is described as follows: Gene panel canonical junction qPCR splicing assay, Target C. As to conditions: Table 4, read-out: Target C IC50 (decrease in CJ mRNA levels). In a few lines:
as §1

The subject of experiment [3] is HTT CJ mRNA. Briefly: Gene panel canonical junction qPCR splicing assay, HTT. As to conditions: Table 4, read-out: HTT IC50 (decrease in CJ mRNA levels). In a few lines:
as §1

The subject of experiment [4] is HTT mRNA. Briefly: Splicing assay (RT-qPCR) of HTT mRNA alternative junction (AJ) and canonical junction (CJ). As to conditions: A673 or K562 cells, 24 hours; for IC50: decrease in CJ mRNA, read-out: HTT CJ IC50; for AC50: increase in AJ mRNA, read-out: HTT AJ AC50. In a few lines:
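HTT splice switching read as formation of an alternative-exon junction (AJ) versus the canonical junction (CJ) by one-step RT-qPCR on cell lysates, with GAPDH/GUSB housekeeping normalisation in K562 and PPIA in A673. Compounds: 11-point 3-fold series up to 10 uM, ≤0.25% DMSO, 24 h at 37 °C.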

For `Cn1cc2cc(-c3ccc4nc(C5CCNCC5)ccc4n3)c(O)cc2n1` [Compound 100, 2-methyl-5-[6-(piperidin-4-yl)-1,5-naphthyridin-2-yl]indazol-6-ol], the IC50 in experiment [1], in experiment [2], in experiment [3] and in experiment [4] was less than 100 nM each time. The AC50 in experiment [4] is 100 to 1000 nM.

`Cc1c(O)c(-c2ccc3nc(C4CCNCC4)ccc3n2)cc2cn(C)nc12` [Compound 101, 2,7-dimethyl-5-[6-(piperidin-4-yl)-1,5-naphthyridin-2-yl]indazol-6-ol]: the IC50 in experiment [1], in experiment [2], in experiment [3] and in experiment [4] was less than 100 nM throughout. For the same compound, in experiment [4], the AC50 was less than 100 nM.

On to `Cn1cc2cc(-c3ccc4nc(C5CCNCC5)ccc4n3)c(O)c(F)c2n1` [Compound 102, 7-fluoro-2-methyl-5-[6-(piperidin-4-yl)-1,5-naphthyridin-2-yl]indazol-6-ol], for which the IC50 in experiment [1], in experiment [2], in experiment [3] and in experiment [4] was less than 100 nM throughout. The AC50 in experiment [4] was less than 100 nM.

Turning to `Cc1cn2nc(-c3ccc4nc(C5CCNCC5)ccc4n3)c(O)cc2n1` [Compound 103, 2-methyl-6-[6-(piperidin-4-yl)-1,5-naphthyridin-2-yl]imidazo[1,2-b]pyridazin-7-ol], the IC50 in experiment [1] was greater than 10000 nM; in experiment [2], 1000 to 10000 nM; in experiment [3], 100 to 1000 nM; in experiment [4], 100 to 1000 nM. Moreover, the AC50 in experiment [4] is 100 to 1000 nM.

With `Cn1cc2c(O)c(-c3ccc4nc(C5CCNCC5)ccc4n3)ccc2n1` [Compound 105, 2-methyl-5-[6-(piperidin-4-yl)-1,5-naphthyridin-2-yl]indazol-4-ol], the IC50 in experiment [1] is 1000 to 10000 nM; in experiment [2], 1000 to 10000 nM; in experiment [3], greater than 10000 nM; in experiment [4], greater than 10000 nM. In addition, the AC50 in experiment [4] was greater than 10000 nM.

`Cn1cc2c(O)c(-c3cc4ccc(C5CCNCC5)nc4cn3)ccc2n1` [Compound 106, 2-methyl-5-[2-(piperidin-4-yl)-1,7-naphthyridin-6-yl]indazol-4-ol]: the IC50 in experiment [1] was in the range of 100 to 1000 nM; in experiment [2], 1000 to 10000 nM; in experiment [3] it was 1000 to 10000 nM; in experiment [4], 1000 to 10000 nM. The AC50 in experiment [4] lay in the range of 1000 to 10000 nM.

In the case of `Cn1cc2cc(-c3ncc4nc(C5CCNCC5)ccc4n3)c(O)cc2n1` [Compound 107, 2-methyl-5-[6-(piperidin-4-yl)pyrido[3,2-d]pyrimidin-2-yl]indazol-6-ol], the IC50 in experiment [1] is less than 100 nM; in experiment [2], 1000 to 10000 nM; in experiment [3], 100 to 1000 nM; in experiment [4], 100 to 1000 nM. The AC50 in experiment [4] was in the range of 100 to 1000 nM.

Take `Cn1cc2c(O)c(-c3ncc4nc(C5CCNCC5)ccc4n3)ccc2n1` [Compound 108, 2-methyl-5-[6-(piperidin-4-yl)pyrido[3,2-d]pyrimidin-2-yl]indazol-4-ol]: the IC50 in experiment [1] was less than 100 nM; in experiment [2], 1000 to 10000 nM; in experiment [3] it was 1000 to 10000 nM; in experiment [4], 1000 to 10000 nM. The AC50 in experiment [4] lay in the range of 1000 to 10000 nM.

For the compound `Cn1cc2cc(-c3ccc4cc(C5CCNCC5)ccc4n3)c(O)cc2n1` [Compound 109, 2-methyl-5-[6-(piperidin-4-yl)quinolin-2-yl]indazol-6-ol], the IC50 in experiment [1] is less than 100 nM; in experiment [2], 100 to 1000 nM; in experiment [3] it was less than 100 nM; in experiment [4], less than 100 nM. In experiment [4], the AC50 fell in the range of 100 to 1000 nM.

In the case of `CN(C(=O)Nc1cn[nH]c1)c1cc2nc(N3CCNCC3)ccc2cn1` [Compound 110, 1-methyl-1-[2-(piperazin-1-yl)-1,6-naphthyridin-7-yl]-3-(1H-pyrazol-4-yl)urea], the values for the IC50 in experiment [1], in experiment [2] and in experiment [3] were greater than 10000 nM, less than 100 nM and greater than 10000 nM, respectively. In experiment [4], the AC50 was greater than 10000 nM.

Consider `O=C(Nc1cn[nH]c1)Nc1cc2nc(N3CCNCC3)ccc2cn1` [Compound 111, 1-[2-(piperazin-1-yl)-1,6-naphthyridin-7-yl]-3-(1H-pyrazol-4-yl)urea], for which the IC50 in experiment [1], in experiment [2], in experiment [3] and in experiment [4] was greater than 10000 nM each time. The AC50 in experiment [4] is greater than 10000 nM.

Consider `O=C(NCc1ccn[nH]1)Nc1cc2nc(N3CCNCC3)ccc2cn1` [Compound 112, 1-[2-(piperazin-1-yl)-1,6-naphthyridin-7-yl]-3-(2H-pyrazol-3-ylmethyl)urea], for which the half-inhibitory concentration (IC50) in experiment [1], in experiment [2], in experiment [3] and in experiment [4] was greater than 10000 nM in each case. The half-maximal activity concentration (AC50) in experiment [4] was greater than 10000 nM.

As to `Cn1cc2cc(-c3ccc4c(F)c(C5CCNCC5)ccc4n3)c(O)cc2n1` [Compound 115, 5-[5-fluoro-6-(piperidin-4-yl)quinolin-2-yl]-2-methylindazol-6-ol], the IC50 in experiment [1] was less than 100 nM; in experiment [2] it was 1000 to 10000 nM; in experiment [3], 1000 to 10000 nM; in experiment [4], 1000 to 10000 nM. The AC50 in experiment [4] lay in the range of 1000 to 10000 nM.

Regarding `CN1CCN(c2ccc3nc(-c4cc5cn(C)nc5cc4O)ccc3n2)CC1` [Compound 116, 2-methyl-5-[6-(4-methylpiperazin-1-yl)-1,5-naphthyridin-2-yl]indazol-6-ol], the IC50 is less than 100 nM in experiment [1], 1000 to 10000 nM in experiment [2], 1000 to 10000 nM in experiment [3] and 1000 to 10000 nM in experiment [4]. Also, the AC50 in experiment [4] fell in the range of 1000 to 10000 nM.

Consider `CC1CN(c2ccc3nc(-c4cc5cn(C)nc5cc4O)ccc3n2)CCN1` (centres unmarked) [Compound 117, 2-methyl-5-[6-(3-methylpiperazin-1-yl)-1,5-naphthyridin-2-yl]indazol-6-ol], for which the IC50 in experiment [1] was less than 100 nM; in experiment [2], 1000 to 10000 nM; in experiment [3] it was 1000 to 10000 nM; in experiment [4] it was 1000 to 10000 nM. Besides, the AC50 in experiment [4] fell in the range of 1000 to 10000 nM.

For the compound `CC1CN(c2ccc3nc(-c4cc5cn(C)nc5cc4O)ccc3n2)CCN1C` (centres unmarked) [Compound 118, 5-[6-(3,4-dimethylpiperazin-1-yl)-1,5-naphthyridin-2-yl]-2-methylindazol-6-ol], the IC50 in experiment [1] was less than 100 nM; in experiment [2], 1000 to 10000 nM; in experiment [3], 1000 to 10000 nM; in experiment [4] it was 1000 to 10000 nM. The AC50 in experiment [4] was in the range of 1000 to 10000 nM.

With `CCC1CN(c2ccc3nc(-c4cc5cn(C)nc5cc4O)ccc3n2)CCN1` (centres unmarked) [Compound 119, 5-[6-(3-ethylpiperazin-1-yl)-1,5-naphthyridin-2-yl]-2-methylindazol-6-ol], the IC50 is less than 100 nM in experiment [1], 1000 to 10000 nM in experiment [2], 100 to 1000 nM in experiment [3] and 100 to 1000 nM in experiment [4]. Besides, the AC50 in experiment [4] lay within 1000 to 10000 nM.

For the compound `Cn1cc2cc(-c3ccc4nc(N5CCNC(C)(C)C5)ccc4n3)c(O)cc2n1` [Compound 120, 5-[6-(3,3-dimethylpiperazin-1-yl)-1,5-naphthyridin-2-yl]-2-methylindazol-6-ol], the IC50 in experiment [1] is less than 100 nM; in experiment [2], 1000 to 10000 nM; in experiment [3] it was 1000 to 10000 nM; in experiment [4], 1000 to 10000 nM. The half-maximal activity concentration (AC50) in experiment [4] was in the range of 1000 to 10000 nM.

Regarding `Cn1cc2cc(-c3ccc4nc(N5CCNC6(CC6)C5)ccc4n3)c(O)cc2n1` [Compound 121, 5-(6-[4,7-diazaspiro[2.5]octan-7-yl]-1,5-naphthyridin-2-yl)-2-methylindazol-6-ol], the IC50 in experiment [1], in experiment [2], in experiment [3] and in experiment [4] was 1000 to 10000 nM in each case. The AC50 in experiment [4] lay within 1000 to 10000 nM.

As to `Cn1cc2cc(-c3ccc4nc(N5CC(C)(C)NC(C)(C)C5)ccc4n3)c(O)cc2n1` [Compound 122, 2-methyl-5-[6-(3,3,5,5-tetramethylpiperazin-1-yl)-1,5-naphthyridin-2-yl]indazol-6-ol], the IC50 in experiment [1] was greater than 10000 nM; in experiment [2], greater than 10000 nM; in experiment [3], 1000 to 10000 nM; in experiment [4], greater than 10000 nM. Moreover, the AC50 in experiment [4] is greater than 10000 nM.

Consider `CN1CC2(C1)CN(c1ccc3nc(-c4cc5cn(C)nc5cc4O)ccc3n1)C2` [Compound 123, 2-methyl-5-(6-[6-methyl-2,6-diazaspiro[3.3]heptan-2-yl]-1,5-naphthyridin-2-yl) indazol-6-ol], for which the IC50 in experiment [1] is less than 100 nM; in experiment [2], less than 100 nM; in experiment [3], 100 to 1000 nM; in experiment [4], less than 100 nM. For the same compound, the AC50 in experiment [4] was in the range of 100 to 1000 nM.

On to `Cn1cc2cc(-c3ccc4nc(N5CC6(CNC6)C5)ccc4n3)c(O)cc2n1` [Compound 124, 5-(6-[2,6-diazaspiro[3.3]heptan-2-yl]-1,5-naphthyridin-2-yl)-2-methylindazol-6-ol], for which the IC50 in experiment [1] was less than 100 nM; in experiment [2], 100 to 1000 nM; in experiment [3], less than 100 nM; in experiment [4], less than 100 nM. For the same compound, the AC50 in experiment [4] lay in the range of 100 to 1000 nM.

Take `Cn1cc2cc(-c3ccc4nc(N5CCC(N6CCCC6)C5)ccc4n3)c(O)cc2n1` (centres unmarked) [Compound 125, 5-(6-[[1,3 m ? bipyrrolidin]-1 ? yl]-1,5-naphthyridin-2-yl)-2-methylindazol-6-ol]: the IC50 in experiment [1] was less than 100 nM; in experiment [2], 100 to 1000 nM; in experiment [3], 100 to 1000 nM; in experiment [4], 100 to 1000 nM. For the same compound, the AC50 in experiment [4] is 100 to 1000 nM.

For `CN1CCC(N(C)c2ccc3nc(-c4cc5cn(C)nc5cc4O)ccc3n2)CC1` [Compound 126], the IC50 was less than 100 nM in experiment [1], less than 100 nM in experiment [2], 100 to 1000 nM in experiment [3] and 100 to 1000 nM in experiment [4]. Also, the AC50 in experiment [4] was in the range of 100 to 1000 nM.
